Measurements: US20210040061A1, “COMPOUND, POLYMER, AND ORGANIC MATERIAL” (Sony Corporation, priority 2018, published 2021)

Assays:
[1] = Refractive index measurement (Abbe's refractometer, acetone solutions, analytical curve extrapolated); type: physicochemical; conditions: light of 589 nm, 25±1° C., extrapolated to volume fraction 1
Experimental: A refractive index measuring method will be described below.
Average refractive indices of the respective compounds to light of 589 nm at room temperature 25±1° C. were measured by an Abbe's refractometer (ER-1, produced by Erma, Inc.) and were plotted against volume fraction of each compound, to form analytical curves (the densities of the compounds were all 1.00 g/cm^3). The analytical curves were extrapolated, and the refractive index when the volume fraction of each compound is 1 was made to be a refractive index of each compound.

[2] = Transparency evaluation of resin compatible film with polyvinyl acetate (visual inspection); type: physicochemical; parameters: key: Good: Transparency is good.; Poor: Coloration is present; conditions: for Transparency: 3 μm film, 10 mg compound + 10 mg polyvinyl acetate, visual inspection; for evaluation of transparency: resin compatible film with PVAc
From the text: Several drops of each of these resin compositions were dropped onto a 2 cm square glass substrate, a film was formed by a spin coater, and acetone as a solvent was evaporated off, to form a resin compatible film (3 μm thick) of each compound. These films were confirmed to be transparent by visual inspection and were subjected to evaluation of transparency.
The criterion of transparency evaluation is as follows.
Good . . . Transparency is good.
Poor . . . Coloration is present.

[3] = Solubility measurement in acetone; conditions: ultrasonic stirring, visual
Experimental: When there was an undissolved portion of the compound, a small amount of acetone was added thereto, and then stirring was further conducted for 30 seconds. The above-mentioned work was repeated, and upon dissolution of the whole of the compound, the solubility was calculated from the total amount of the solvent used.

[4] = background statement; cited from earlier work
[5] = Limit value (saturation amount) of dissolution of monomer in solvent of hologram recording photosensitive composition; type: physicochemical; conditions: hologram recording photosensitive composition with 8 g of acetone as solvent
Experimental: (§1) In Comparative Example 5, Hologram Recording Photosensitive Composition 50 was prepared by the same method as in Example 7 by using the same materials in the same amounts as in Example 7, except that 0.88 g of Compound 40-1 (the compound of Comparative Example 1) was used as a monofunctional photopolymerizable monomer. […] Note that the amount (0.88 g) in which Compound 40-1 was used is a limit value (saturation amount) of dissolution of the compound in a solvent.
as §1, with “6,” for “5,”, “60” for “50”, “1” for “0.88”, “40-2” for “40-1”, “2)” for “1)”, “(1” for “(0.88”
as §1, with “7,” for “5,”, “70” for “50”, “0.1” for “0.88”, “40-3” for “40-1”, “3)” for “1)”, “(0.1” for “(0.88”

Row | Structure (SMILES) | Refractive index (589 nm) [1] | Transparency [2] | Solubility/wt % [3] | refractive index [4] | limit value (saturation amount) of dissolution of the compound in a solvent [5] | evaluation of transparency [2]
1 | C=CC(=O)Oc1cccc(OC(=O)C=C)c1CCc1cc2ccccc2c2c1sc1ccc3ccccc3c12 [Example 14] | 1.72 | Good | >20 wt % | – | – | –
2 | C=C(C)C(=O)Oc1ccc2ccccc2c1CCc1cc2ccccc2c2c1sc1ccc3ccccc3c12 [Example 6] | 1.81 | Good | >20 wt % | – | – | –
3 | c1ccc2c(c1)ccc1c2sc2ccc3ccccc3c21 [dinaphthothiophene] | – | – | – | 1.8 | – | –
4 | C=C(C)C(=O)Oc1ccccc1CCc1cc2ccccc2c2c1sc1ccc3ccccc3c12 [Example 5] | 1.7 | Good | >20 wt % | – | – | –
5 | C=C(C)C(=O)OCc1cc2ccccc2c2c1sc1ccc3ccccc3c12 [Comparative Example 1, reference compound] | 1.73 | Good | <10 wt % | – | 0.88 g | –
6 | C=C(CCCCCCCCCC)C(=O)Oc1ccccc1CCc1cc2ccccc2c2c1sc1ccc3ccccc3c12 [Example 4] | 1.7 | Good | >20 wt % | – | – | –
7 | C=Cc1cc2ccccc2c2c1sc1ccc3ccccc3c12 [Comparative Example 3, reference compound] | 1.8 | Poor | <1.5 wt % | – | 0.1 g | Poor
8 | C=C(C)C(=O)Oc1cccc(OC(=O)C(=C)C)c1CCc1cc2ccccc2c2c1sc1ccc3ccccc3c12 [Example 13] | 1.73 | Good | >20 wt % | – | – | –
9 | C=C(C)C(=O)Oc1ccccc1CCc1cc2ccccc2c2c1sc1ccc3ccccc3c12 [Example 1] | 1.8 | Good | >20 wt % | – | – | –
10 | C=C(C)C(=O)Oc1ccc(CCc2cc3ccccc3c3c2sc2ccc4ccccc4c23)cc1 [Example 3] | 1.8 | Good | >20 wt % | – | – | –
11 | C=C(C)C(=O)Oc1cc2ccccc2cc1CCc1cc2ccccc2c2c1sc1ccc3ccccc3c12 [Example 15] | 1.81 | Good | >20 wt % | – | – | –
12 | c1ccc2c(c1)ccc1sc3ccc4ccccc4c3c12 [Comparative Example 4, reference compound] | 1.81 | Good | – | – | – | –
13 | C=C(C)C(=O)OC(C)c1cc2ccccc2c2c1sc1ccc3ccccc3c12 (centres unmarked) [Comparative Example 2, reference compound] | 1.71 | Poor | <11 wt % | – | 1 g | Poor
14 | C=C(C)C(=O)Oc1cccc(CCc2cc3ccccc3c3c2sc2ccc4ccccc4c23)c1 [Example 2] | 1.8 | Good | >20 wt % | – | – | –
